One molecule from patent US20250082565A1, “ANTIOXIDANT COSMETIC COMPLEX, COSMETIC COMPOSITION, USE AND METHOD FOR COSMETIC TREATMENT” (Natura Cosméticos S.A., priority 2023, published 2025) can be followed below.

The nature of assay [1]: Suppression of triplet species (laser flash photolysis). The settings on record: Stern-Volmer model; 10 μM methylene blue, excitation 660 nm, argon purged; individual actives. Here is the method:
(§1) The excited state suppression ability was assessed by measuring the transient absorption of triplet states using flash photolysis and by singlet oxygen emission in the near infrared.
Triplet suppression: The SHB Laser Flash Photolysis system was used (FIG. 14). A laser pulse (10 mJ/pulse, 10-20 ns) impinges on the sample providing electronic excitation. To assess the formation and the lifetime of excited states or other reactive intermediates, the change in absorbance prior to and after electronic excitation of the sample is monitored by an optical beam (LED) as a function of time. It monitors the disappearance of the species in the fundamental state or the appearance of the excited or radical species. The laser beam is positioned at 90° to the monitoring beam. Shutters are used in both the excitation and monitoring beams to protect the sample from photolysis. The detector in this technique consists of a combination of filters and diode detector. The diode response is read on a digital oscilloscope (Tektronix 2230), which data is subsequently transferred to the microcomputer. The entire equipment is controlled by a microcomputer and the time resolution of the instrument is of about 50 ns. A Quantel Nd: YAG laser (2 w, 3 w Rainbow, pulsed at 3 ns, 80.1% power) was used. […] Readings were taken in a 2 mm×10 mm quartz cuvette. […]

A short description of assay [2]: Singlet oxygen suppression (emission at 1270 nm). The settings on record: Stern-Volmer model; phosphorescence at 1270 nm in ethanol. As to the method: as §1
Singlet oxygen suppression: The detector (PMT Hamamatsu R5509—model PC176TSCE005) was cooled to −80° C. and set to 1500 V and the signals were acquired using a proprietary software from SHB Analytics GmbH (Germany). Excitation was performed by a Quantel Brilliant laser (2 w-3 w-Rainbow). Emission from the sample is filtered so that irradiation in the range of from […] is detected. A microcomputer is connected to the system and analysis of the transients is carried out using an ultra-fast acquisition plate. It is important to remember that luminescence emission at 1270 nm is characteristic of singlet oxygen, being the safest method of detecting the presence and reactivity of this species. […]
To assess the actives' ability of suppressing singlet oxygen (1O2), the near-infrared emission (1270 nm) was measured, which is characteristic of 1O2 and a golden standard for this detection. […]
The detector (PMT Hamamatsu-model H10330-45) was cooled to −80° C. and set to −800 V and the signals were acquired using a proprietary software from SHB Analytics GmbH (Germany). […] Sample emission is detected in the range of 1270±20 nm. […]

For `CC1=C(/C=C/C(C)=C/C=C/C(C)=C/C=C/C=C(C)/C=C/C=C(C)/C=C/C2=C(C)CCCC2(C)C)C(C)(C)CCC1` [Beta-carotene], in assay [1], the “KSt (triplet suppression constant)” value stood at 0.16 ± 0.05 μg^−1μL. Further, the “KSV (singlet oxygen suppression constant)” value in assay [2] was 30.5 × 10^4 mg^−1mLs^−1.
